Experimental data reported in US12157746B2, “Tetrahydro-1H-pyrazino[2,1-a]isoindolylquinoline compounds for the treatment of autoimmune disease” (F. HOFFMANN-LA ROCHE AG, priority 2018, dated 2024).

Target: T1, hERG K+ channel (Homo sapiens, UniProt Q12809)
T1 construct: expressed in transfected cells; host or cells: CHO (Chinese hamster ovary) cells, CHOhERG
Assay: hERG channel inhibition assay
Format: cell-based
Settings: patch-clamp (voltage-clamp, whole-cell); for IC50: CHO cells expressing hERG; for IC20: human, CHO cells stably expressing hERG
Description: hERG Channel Inhibition Assay
The hERG K^+ channels were cloned in humans and stably expressed in a CHO (Chinese hamster ovary) cell line. CHOhERG cells were used for patch-clamp (voltage-clamp, whole-cell) experiments. Cells were stimulated by a voltage pattern to activate hERG channels and conduct IKhERG currents (rapid delayed outward rectifier potassium current of the hERG channel). After the cells were stabilized for a few minutes, the amplitude and kinetics of IKhERG were recorded at a stimulation frequency of 0.1 Hz (6 bpm). Thereafter, the test compound was added to the preparation at increasing concentrations. For each concentration, an attempt was made to reach a steady-state effect, usually, this was achieved within 3-10 min at which time the next highest concentration was applied. The amplitude and kinetics of IKhERG are recorded in each concentration of the drug which were compared to the control values (taken as 100%). (references: Redfem W S, Carlsson L, Davis A S, Lynch W G, MacKenzie I, Palethorpe S, Siegl P K, Strang I, Sullivan A T, Wallis R, Camm A J, Hammond T G. 2003; Relationships between preclinical cardiac electrophysiology, clinical QT interval prolongation and torsade de pointes for a broad range of drugs: evidence for a provisional safety margin in drug development. Cardiovasc. Res. 58:32-45, Sanguinetti M C, Tristani-Firouzi M. 2006; hERG potassium channels and cardiac arrhythmia. Nature 440:463-469, Webster R, Leishman D, Walker D. 2002; Towards a drug concentration effect relationship for QT prolongation and torsades de pointes. Curr. Opin. Drug Discov. Devel. 5:116-26).

T1 sequence (Q12809 whole entry): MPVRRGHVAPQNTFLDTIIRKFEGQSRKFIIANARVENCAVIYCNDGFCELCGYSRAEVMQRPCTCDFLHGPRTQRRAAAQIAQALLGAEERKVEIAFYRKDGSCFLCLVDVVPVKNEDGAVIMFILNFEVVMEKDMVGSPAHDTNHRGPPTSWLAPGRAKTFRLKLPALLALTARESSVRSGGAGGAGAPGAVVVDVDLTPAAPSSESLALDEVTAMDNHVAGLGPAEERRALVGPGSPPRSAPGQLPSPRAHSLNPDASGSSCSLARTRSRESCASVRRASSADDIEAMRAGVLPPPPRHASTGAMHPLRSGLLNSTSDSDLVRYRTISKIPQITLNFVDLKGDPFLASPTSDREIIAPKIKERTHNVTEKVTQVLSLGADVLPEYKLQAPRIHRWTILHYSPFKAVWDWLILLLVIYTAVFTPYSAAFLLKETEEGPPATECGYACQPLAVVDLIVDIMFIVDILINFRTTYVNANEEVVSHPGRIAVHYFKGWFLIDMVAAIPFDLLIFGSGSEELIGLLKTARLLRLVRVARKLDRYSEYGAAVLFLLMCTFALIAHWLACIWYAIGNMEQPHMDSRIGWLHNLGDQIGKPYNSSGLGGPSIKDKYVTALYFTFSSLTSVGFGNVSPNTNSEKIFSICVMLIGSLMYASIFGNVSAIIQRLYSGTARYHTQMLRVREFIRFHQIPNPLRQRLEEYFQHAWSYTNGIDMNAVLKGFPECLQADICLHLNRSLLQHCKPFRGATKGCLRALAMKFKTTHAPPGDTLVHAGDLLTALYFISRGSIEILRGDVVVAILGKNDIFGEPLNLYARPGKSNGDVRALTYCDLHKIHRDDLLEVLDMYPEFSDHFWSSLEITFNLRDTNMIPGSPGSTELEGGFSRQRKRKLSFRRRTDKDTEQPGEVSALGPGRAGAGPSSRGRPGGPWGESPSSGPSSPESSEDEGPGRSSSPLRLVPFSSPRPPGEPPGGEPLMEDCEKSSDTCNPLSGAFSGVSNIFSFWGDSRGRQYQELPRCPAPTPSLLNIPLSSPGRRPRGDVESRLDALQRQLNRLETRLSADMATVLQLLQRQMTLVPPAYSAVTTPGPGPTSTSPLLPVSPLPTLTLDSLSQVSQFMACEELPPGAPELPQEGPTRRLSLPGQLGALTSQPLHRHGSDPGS

Row | SMILES | IC50 | IC20
1 | CO[C@H]1CN(c2ccc3c(c2)CN2[C@H](C)CN(c4ccc(C#N)c5ncccc45)C[C@H]32)C[C@@H]1N (relative stereo) [Example 16, 5-[(4R,10bS)-8-[trans-3-amino-4-methoxy-pyrrolidin-1-yl]-4-methyl-3,4,6,10b-tetrahydro-1H-pyrazino[2,1-a]isoindol-2-yl]quinoline-8-carbonitrile] | > 20 µM | > 10 µM
2 | C[C@@H]1CN(c2ccc(C#N)c3ncccc23)C[C@@H]2c3ccc(N4C[C@@H](N)[C@](C)(O)C4)cc3CN12 [Example 45A, 5-[(4R,10bS)-8-[(3R,4R)-4-amino-3-hydroxy-3-methyl-pyrrolidin-1-yl]-4-methyl-3,4,6,10b-tetrahydro-1H-pyrazino[2,1-a]isoindol-2-yl]quinoline-8-carbonitrile] | > 20 µM | 7.4 µM
3 | C[C@@H]1CN(c2ccc(C#N)c3ncccc23)C[C@@H]2c3ccc(N4CC5(CN(C)C5)C4)cc3CN12 [Example 38, 5-[(4R,10bS)-4-methyl-8-(6-methyl-2,6-diazaspiro[3.3]heptan-2-yl)-3,4,6,10b-tetrahydro-1H-pyrazino[2,1-a]isoindol-2-yl]quinoline-8-carbonitrile] | > 20 µM | > 10 µM
4 | C[C@@H]1CN(c2ccc(C#N)c3ncccc23)C[C@@H]2c3ccc(N4CCNC[C@H](O)C4)cc3CN12 [Example 53A, 5-[(4R,10bS)-8-[(6S)-6-hydroxy-1,4-diazepan-1-yl]-4-methyl-3,4,6,10b-tetrahydro-1H-pyrazino[2,1-a]isoindol-2-yl]quinoline-8-carbonitrile] | > 20 µM | 6.6 µM
5 | C[C@@H]1CN(c2ccc(C#N)c3ncccc23)C[C@@H]2c3ccc(N4CCNCC(O)C4)cc3CN12 (stereo partly drawn) [Example 15, 5-[(4R,10bS)-8-(6-hydroxy-1,4-diazepan-1-yl)-4-methyl-3,4,6,10b-tetrahydro-1H-pyrazino[2,1-a]isoindol-2-yl]quinoline-8-carbonitrile] | > 20 µM | > 10 µM
6 | C[C@@H]1CN(c2ccc(C#N)c3ncccc23)C[C@@H]2c3ccc(N4C[C@@H](N)[C@H](O)C4)cc3CN12 (single isomer, unassigned) [Example 40B] | > 20 µM | > 10 µM
7 | CN[C@@H]1CN(c2ccc3c(c2)CN2[C@H](C)CN(c4ccc(C#N)c5ncccc45)C[C@H]32)C[C@H]1O [Example 43, 5-[(4R,10bS)-4-methyl-8-[(3R,4R)-3-hydroxy-4-(methylamino)pyrrolidin-1-yl]-3,4,6,10b-tetrahydro-1H-pyrazino[2,1-a]isoindol-2-yl]quinoline-8-carbonitrile] | > 20 µM | 5.2 µM
8 | C[C@@H]1CN(c2ccc(C#N)c3ncccc23)C[C@@H]2c3ccc(N4C[C@H]5NCCO[C@@H]5C4)cc3CN12 [Example 44, 5-[(4R,10bS)-4-methyl-8-[(4aR,7aR)-3,4,4a,5,7,7a-hexahydro-2H-pyrrolo[3,4-b][1,4]oxazin-6-yl]-3,4,6,10b-tetrahydro-1H-pyrazino[2,1-a]isoindol-2-yl]quinoline-8-carbonitrile] | > 20 µM | 6.4 µM
9 | COC12CNCC1CN(c1ccc3c(c1)CN1[C@H](C)CN(c4ccc(C#N)c5ncccc45)C[C@H]31)C2 (stereo partly drawn) [Example 41, 5-[(4R,10bS)-8-(3a-methoxy-1,2,3,4,6,6a-hexahydropyrrolo[3,4-c]pyrrol-5-yl)-4-methyl-3,4,6,10b-tetrahydro-1H-pyrazino[2,1-a]isoindol-2-yl]quinoline-8-carbonitrile] | > 20 µM | > 10 µM
10 | C[C@@H]1CN(c2ccc(C#N)c3ncccc23)C[C@@H]2c3ccc(N4CC5(CNC5)C4)cc3CN12 [Example 36, 5-[(4R,10bS)-8-(2,6-diazaspiro[3.3]heptan-2-yl)-4-methyl-3,4,6,10b-tetrahydro-1H-pyrazino[2,1-a]isoindol-2-yl]quinoline-8-carbonitrile] | > 20 µM | > 10 µM
11 | C[C@@H]1CN(c2ccc(C#N)c3ncccc23)C[C@@H]2c3ccc(NCCN(C)C)cc3CN12 [Example 26, 5-[(4R,10bS)-8-[2-(dimethylamino)ethylamino]-4-methyl-3,4,6,10b-tetrahydro-1H-pyrazino[2,1-a]isoindol-2-yl]quinoline-8-carbonitrile] | > 20 µM | 5 µM
12 | C[C@@H]1CN(c2ccc(C#N)c3ncccc23)C[C@@H]2c3ccc(N4CC(N)C4)cc3CN12 [Example 22, 5-[(4R,10bS)-8-(3-aminoazetidin-1-yl)-4-methyl-3,4,6,10b-tetrahydro-1H-pyrazino[2,1-a]isoindol-2-yl]quinoline-8-carbonitrile] | > 20 µM | 5 µM
13 | C[C@@H]1CN(c2ccc(C#N)c3ncccc23)C[C@@H]2c3ccc(N4CCOCC(N)C4)cc3CN12 (stereo partly drawn) [Example 54, 5-[(4R,10bS)-8-(6-amino-1,4-oxazepan-4-yl)-4-methyl-3,4,6,10b-tetrahydro-1H-pyrazino[2,1-a]isoindol-2-yl]quinoline-8-carbonitrile] | > 20 µM | > 10 µM
14 | C[C@@H]1CN(c2ccc(C#N)c3ncccc23)C[C@@H]2c3ccc(N4CCN[C@H](CO)C4)cc3CN12 [Example 12, 5-[(4R,10bS)-8-[(3S)-3-(hydroxymethyl)piperazin-1-yl]-4-methyl-3,4,6,10b-tetrahydro-1H-pyrazino[2,1-a]isoindol-2-yl]quinoline-8-carbonitrile] | > 20 µM | > 10 µM
15 | C[C@@H]1CN(c2ccc(C#N)c3ncccc23)CC2c3ccc(N4C[C@H](N)[C@@H](O)C4)cc3CN21 (relative stereo) [Example 21, 5-[(4R,10bS)-8-[trans-3-amino-4-hydroxy-pyrrolidin-1-yl]-4-methyl-3,4,6,10b-tetrahydro-1H-pyrazino[2,1-a]isoindol-2-yl]quinoline-8-carbonitrile] | > 20 µM | > 10 µM
16 | C[C@@H]1CN(c2ccc(C#N)c3ncccc23)C[C@@H]2c3ccc(N4CC5(CNCCO5)C4)cc3CN12 [Example 35, 5-[(4R,10bS)-4-methyl-8-(5-oxa-2,8-diazaspiro[3.5]nonan-2-yl)-3,4,6,10b-tetrahydro-1H-pyrazino[2,1-a]isoindol-2-yl]quinoline-8-carbonitrile] | > 20 µM | > 10 µM
17 | C[C@@H]1CN(c2ccc(C#N)c3ncccc23)C[C@@H]2c3ccc(NC4CNC4)cc3CN12 [Example 28, 5-[(4R,10S)-8-(azetidin-3-ylamino)-4-methyl-3,4,6,10b-tetrahydro-1H-pyrazino[2,1-a]isoindol-2-yl]quinoline-8-carbonitrile] | > 20 µM | > 10 µM
18 | C[C@@H]1CN(c2ccc(C#N)c3ncccc23)C[C@@H]2c3ccc(N4CC5(CCN5)C4)cc3CN12 [Example 37, 5-[(4R,10bS)-8-(1,6-diazaspiro[3.3]heptan-6-yl)-4-methyl-3,4,6,10b-tetrahydro-1H-pyrazino[2,1-a]isoindol-2-yl]quinoline-8-carbonitrile] | > 20 µM | 8.6 µM
19 | CN[C@H]1CN(c2ccc3c(c2)CN2[C@H](C)CN(c4ccc(C#N)c5ncccc45)C[C@H]32)C[C@@H]1O [Example 42, 5-[(4R,10bS)-8-[(3S,4S)-3-hydroxy-4-(methylamino)pyrrolidin-1-yl]-4-methyl-3,4,6,10b-tetrahydro-1H-pyrazino[2,1-a]isoindol-2-yl]quinoline-8-carbonitrile] | > 20 µM | 6.7 µM
20 | C[C@@H]1CN(c2ccc(C#N)c3ncccc23)C[C@@H]2c3ccc(NC4CNCCOC4)cc3CN12 (stereo partly drawn) [Example 56, 5-[(4R,10bS)-4-methyl-8-(1,4-oxazepan-6-ylamino)-3,4,6,10b-tetrahydro-1H-pyrazino[2,1-a]isoindol-2-yl]quinoline-8-carbonitrile] | > 20 µM | > 10 µM
21 | C[C@@H]1CN(c2ccc(C#N)c3ncccc23)C[C@@H]2c3ccc(N4C[C@H](N)[C@@](C)(O)C4)cc3CN12 [Example 45B, 5-[(4R,10bS)-8-[(3S,4S)-4-amino-3-hydroxy-3-methyl-pyrrolidin-1-yl]-4-methyl-3,4,6,10b-tetrahydro-1H-pyrazino[2,1-a]isoindol-2-yl]quinoline-8-carbonitrile] | > 20 µM | > 10 µM
